Key:
[1] = test system: nitrification in soil (microbial biomass); assay: Soil incubation test for inhibition of nitrification (Example 4); format: cell-based; conditions: n=4
Method: 100 g soil is filled into 500 ml plastic bottles (e.g. soil sampled from the field) and is moistened to 50% water holding capacity. The soil is incubated at 20° C. for two weeks to activate the microbial biomass. 1 ml test solution, containing the components of the mixture in the appropriate concentration (usually from 0.1 to 3% of nitrogen N), or DMSO and 10 mg nitrogen in the form of ammoniumsulfate-N is added to the soil and everything mixed well. Bottles are capped but loosely to allow air exchange. The bottles are then incubated at 20° C. for 0, 14 and 28 days.
For analysis, 300 ml of a 1% K2SO4-solution is added to the bottle containing the soil and shaken for 2 hours in a horizontal shaker at 150 rpm. Then the whole solution is filtered through a filter (Macherey-Nagel Filter MN 807%). Ammonium and nitrate content is then analyzed in the filtrate in an autoanalyzer at 550 nm (Merck, AA11).
The inhibition (NI@a specified concentration) is calculated as follows:
4 tests regarding the inhibition of nitrification were performed in each case (n=4).
The tested amounts were 0.3 and 1% by weight of component (ii) of the MOF relative to NH4—N.

N2O emission = assay: N2O inhibition in vegetation hall over 10 days using ammonium sulfate as fertilizer; conditions: 10 days cumulative
From the text: N2O inhibition in vegetation hall over 10 days (cumulative values) using AS (ammonium sulfate) as fertilizer: […]

[2] = Evaporation of active ingredient in thermogravimetric analyzer; format: physicochemical; conditions: during 1 hour at 30° C.; continuous flow of N2 gas
Method: The evaporation of 5-ethoxy-3-methyl-1H-pyrazole and the corresponding Zn MOF of 5-ethoxy-3-methyl-1H-pyrazole, i.e. Zinc-5-Ethoxy-3-Methyl-Pyrazolate, has been measured in a thermogravimetric analyzer instrument by the following procedure. A few milligrams of the test substance were positioned on the probe of the thermogravimetric analyzer, in a continuous flow of N2 gas. After equilibrating the system to 30° C., the weight of the sample was monitored over a time period of 65 minutes at a temperature of 30° C.

[3] = test system: nitrification in soil Limburgerhof (microbial community); assay: Soil incubation with inhibitor mixed into ammonium sulfate nitrate melt (Example 5); format: cell-based; conditions: after 14 days, added to ASS melt at 125° C.
Method: The MOF of Example 3 was tested as follows in terms of the inhibition of nitrification: The nitrification inhibition capacity was tested after incubation of soil. In the experiment 50 g soil (soil Limburgerhof with pH (CaCl2)) 6, 73% sand, 23% silt, 4% clay, which is classified according to FAO as sandy loam) was filled into 250 ml plastic bottles and was moistened to 50% water holding capacity. The soil was incubated at 20° C. for about one week prior to the experiments to activate the microbial community. Ammonium sulfate nitrate (ASS) was heated to 125° C. in presence of 4% water. After the ASS had melted, Zinc-5-Ethoxy-3-Methyl-Pyrazolate or the underlying pyrazole compound was added and was mixed in for 1 minute. Afterwards, the melted ASS was poured onto a metal plate and cooled down to room temperature. Depending on treatment, 26.3 mg the treated ASS were milled and added to the soil and everything was mixed well. […] The fertilizer amount used for the experiment was calculated to contain 5 mg nitrogen in the form of ammonium sulfate-N(NH4—N)). […] Ammonium and nitrate content is then analyzed in the filtrate using an autoanalyzer. Ammonium was quantified via an indophenol blue dye at 660 nm, and nitrate via an azo dye at 540 nm. The nitrification inhibition is expressed as % of NH4—N recovery from fertilized NH4—N-(100%) after subtraction of unfertilized control soil.

[4] = 0.3 wt.-% of pyrazolate relative to NH4—N, after 14 days
[5] = 0.3 wt.-% of pyrazolate relative to NH4—N, after 28 days
[6] = 1.0 wt.-% of pyrazolate relative to NH4—N, after 14 days
[7] = 1.0 wt.-% of pyrazolate relative to NH4—N, after 28 days

Row | % loss (evaporation of active ingredient) [2] [%] | SMILES | Reduction of NO3− production [1, 4] | Residual amounts of NH4 [1, 4] | Reduction of NO3− production [1, 5] | Residual amounts of NH4 [1, 5] | Reduction of NO3− production [1, 6] | Residual amounts of NH4 [1, 6] | Reduction of NO3− production [1, 7] | Residual amounts of NH4 [1, 7] | % Emission (N2O) (N2O emission; 0.3 wt.-% relative to NH4—N) [%] | % Inhibition (N2O) (N2O emission; 0.3 wt.-% relative to NH4—N) [%] | Emission cumulative minus background (N2O) (N2O emission; 0.3 wt.-% relative to NH4—N) | % Emission (N2O) (N2O emission; 1.0 wt.-% relative to NH4—N) [%] | % Inhibition (N2O) (N2O emission; 1.0 wt.-% relative to NH4—N) [%] | Emission cumulative minus background (N2O) (N2O emission; 1.0 wt.-% relative to NH4—N) | Residual amounts of NH4 (% of NH4—N recovery from fertilized NH4—N) ([3]; 0.3 wt.-% relative to NH4—N) [%] | Residual amounts of NH4 (% of NH4—N recovery from fertilized NH4—N) ([3]; 0.8 wt.-% relative to NH4—N) [%]
1 | – | COc1cc(C)n[nH]1 [5-Methoxy-3-Methyl-1H-Pyrazole] | 75 | 70 | 40 | 34 | 88 | 90 | 74 | 68 | 10.4 | 89.6 | 393 | 5.0 | 95.0 | 191 | – | –
2 | 5.6 | CCOc1cc(C)n[nH]1 [5-ethoxy-3-methyl-1H-pyrazole] | – | – | – | – | – | – | – | – | – | – | – | – | – | – | 45.4 | 57.0
